Assay results from patent publication US11371025B2, “Non-covalent loading of plant picovirus particles” (CASE WESTERN RESERVE UNIVERSITY, priority 2013, dated 2022).
Where a name gives a salt, the structure may show the parent alone.

What was measured:
HeLa cells [1] = experiment: XTT cell viability assay, HeLa; assay type: cell-based, human; details: drug concentration, 24 h exposure, washed, further 24 h
HT-29 cells = experiment: XTT cell viability assay, HT-29; assay type: cell-based; details: Homo sapiens, drug concentration, 24 h exposure, washed, further 24 h
PC-3 cells = experiment: XTT cell viability assay, PC-3; assay type: cell-based; details: Homo sapiens, drug concentration, 24 h exposure, washed, further 24 h
HeLa cells [2] = details: 0.2 μM DAPI, 60 min incubation
Method: Cells were fixed and stained with WGA-A488 (Invitrogen) as described above. […] Confocal images were captured and analyzed as described above.
For delivery studies, the DAPI concentration was five magnitudes lower measuring only 0.2 μM DAPI.

Compound: N.N.[Cl][Pt][Cl] [CDDP, cis-dichlorodiammine platinum(II)]
- IC50 (HeLa cells [1]): 12 to 21 µM

Compound: Nc1ccc2cc3ccc(N)cc3nc2c1 [proflavine, 3,6-diaminoacridine hydrochloride]
- IC50 (HeLa cells [1]; Homo sapiens): 1.8 to 2.9 µM
- IC50 (HT-29 cells): 6.13 µM
- IC50 (PC-3 cells): 6.13 µM

Compound: 4′,6-diamidino-2-phenylindole [DAPI]
- fluorescent signals from the nuclei (HeLa cells [2]): do not show any apparent fluorescent signals
